Results from paper PMC3445549, “The Mode of Action of Isocyanide in Three Aquatic Organisms, Balanus amphitrite, Bugula neritina and Danio rerio” (PLoS ONE, 2012).

Target: T1, NADH-ubiquinone oxidoreductase (Amphibalanus amphitrite, UniProt A0A6A4V2F0)
T1 construct: gene NDUFV1; native protein from solubilised cyprid lysate; 50 kD band
Assay: affinity pull-down on Affi-gel […] matrix, SDS-PAGE, UPLC-MS/MS
Assay type: biochemical
Details: isocyanide 2 coupled to matrix via its amine (labelled compound); competed by 0.4 mg/ml free isocyanide 2; cyprid lysate; wash 500 mM NaCl, 1% Triton X100

T1 sequence (A0A6A4V2F0 27-476): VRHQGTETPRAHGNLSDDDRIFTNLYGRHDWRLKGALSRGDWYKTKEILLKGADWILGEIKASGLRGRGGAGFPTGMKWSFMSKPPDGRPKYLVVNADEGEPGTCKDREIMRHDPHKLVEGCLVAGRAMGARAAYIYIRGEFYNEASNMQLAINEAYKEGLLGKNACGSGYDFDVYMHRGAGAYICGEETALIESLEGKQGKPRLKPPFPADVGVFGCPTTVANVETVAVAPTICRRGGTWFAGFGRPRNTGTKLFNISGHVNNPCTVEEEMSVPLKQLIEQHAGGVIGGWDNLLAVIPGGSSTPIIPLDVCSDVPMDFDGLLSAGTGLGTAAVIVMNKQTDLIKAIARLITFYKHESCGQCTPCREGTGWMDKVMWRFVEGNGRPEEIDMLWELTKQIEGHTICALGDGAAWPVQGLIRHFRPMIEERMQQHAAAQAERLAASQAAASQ

Compound: [C-]#[N+]C(C)(C)CCCCCCCCCN [compound 2, 10-isocyano-10-methylundecan-1-amine]
- affinity pull-down on Affi-gel 10 matrix, SDS-PAGE, UPLC-MS/MS: NADH-ubiquinone oxidoreductase was specifically identified in this protein band (Table S2)
